Reference: US8785468B2, “Phenylalanine amide derivatives useful for treating insulin-related diseases and conditions” (Amgen Inc., priority 2009, dated 2014)
pEC50: −log10 of the molar value. Structures can show the parent of a compound that is named as a salt.

Biological target: T1, human receptor found in pancreatic islet cells (Homo sapiens, UniProt Q7Z601)
T1 sequence (Q7Z601 1-462): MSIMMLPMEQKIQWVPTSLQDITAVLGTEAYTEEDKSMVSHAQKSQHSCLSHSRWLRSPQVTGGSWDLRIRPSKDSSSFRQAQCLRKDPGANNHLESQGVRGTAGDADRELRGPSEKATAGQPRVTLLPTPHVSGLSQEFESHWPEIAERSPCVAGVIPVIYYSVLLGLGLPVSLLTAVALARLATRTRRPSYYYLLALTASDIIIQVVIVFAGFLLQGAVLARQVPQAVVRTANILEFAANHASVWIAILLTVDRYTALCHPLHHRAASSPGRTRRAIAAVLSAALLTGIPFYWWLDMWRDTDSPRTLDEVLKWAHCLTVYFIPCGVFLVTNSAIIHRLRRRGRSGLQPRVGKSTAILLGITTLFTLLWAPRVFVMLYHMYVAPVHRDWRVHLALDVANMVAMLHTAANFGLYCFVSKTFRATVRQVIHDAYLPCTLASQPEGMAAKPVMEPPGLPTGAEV
Assay: Activation of intracellular IP3 signaling in transfected cells (Activation Assay)
Type: cell-based
Conditions: calculated from IP3 concentration measurements in cells transfected with the human receptor
Method: Table 12 provides exemplary compounds that were prepared and assessed, following protocols known to those of skilled in the art, for activation of intracellular inositol trisphosphate (IP3) signaling pathways that lead to elevation of intracellular calcium concentration. EC50 values provided in Table 12 were calculated from IP3 concentration measurements in cells transfected with a human receptor found in pancreatic islet cells, inter alia.

Question: `Cc1cc(-c2cc(NC(=O)[C@H](Cc3ccc(F)cc3)NCC(=O)O)n(C)n2)ccn1` [Example 16.2, 2-((S)-3-(4-Fluorophenyl)-1-(1-methyl-3-(2-methylpyridin-4-yl)-1H-pyrazol-5-ylamino)-1-oxopropan-2-ylamino)acetic acid dihydrochloride] was tested. Which pEC50 did it give?
Answer: 7.00 to 7.30

Question: How did the pEC50 turn out when `CCn1nc(-c2ccncc2)cc1NC(=O)[C@H](Cc1ccccc1)NCCCc1ccccn1` [Example 20.2] was run?
Answer: > 7.30

Question: `O=C(Nc1cccc(-c2ccncc2)c1)[C@H](Cc1ccccc1)NCc1cscn1` [Example 34.14, (S)-3-Phenyl-N-(3-(pyridin-4-yl)phenyl)-2-(thiazol-4-ylmethylamino)propanamide] was tested. Which pEC50 did it give?
Answer: 7.00 to 7.30

Question: With `COc1ncc(-c2ccn(C)n2)cc1NC(=O)[C@H](Cc1ccccc1)NC1(c2ccccn2)CC1` [Example 19.1] as the compound, how does the pEC50 read?
Answer: 6.00 to 7.00

Question: With `COc1ncc(-c2ccnc(C)c2)cc1NC(=O)[C@H](Cc1ccccc1)NCc1cn(C)cn1` [Example 41.4, (2S)—N-(2-Methoxy-5-(2-methylpyridin-4-yl)pyridin-3-yl)-2-((1-methyl-1H-imidazol-4-yl)methylamino)-3-phenylpropanamide] as the compound, how does the pEC50 read?
Answer: 6.00 to 7.00

Question: With `CCOCCN[C@@H](Cc1ccc(F)cc1)C(=O)Nc1cc(-c2ccnc(NC)c2)nn1C` [Example 23.3, (2S)-2-(2-Ethoxyethylamino)-3-(4-fluorophenyl)-N-(1-methyl-3-(2-(methylamino)pyridin-4-yl)-1H-pyrazol-5-yl)propanamide] as the compound, how does the pEC50 read?
Answer: 6.00 to 7.00

Question: With `CNc1cc(-c2cc(NC(=O)[C@H](Cc3ccc(F)cc3)NCc3cscn3)n(CCO)n2)ccn1` [Example 30, (2S)-3-(4-Fluorophenyl)-N-(1-(2-hydroxyethyl)-3-(2-(methylamino)pyridin-4-yl)-1H-pyrazol-5-yl)-2-(thiazol-4-ylmethylamino)propanamide] as the compound, how does the pEC50 read?
Answer: 7.00 to 7.30

Question: With `COc1ncc(-c2ccnc(C)c2)cc1NC(=O)[C@H](Cc1ccccc1)N[C@@H](C)c1ccccn1` [Example 41.2, (S)—N-(2-Methoxy-5-(2-methylpyridin-4-yl)pyridin-3-yl)-3-phenyl-2-((S)-1-(pyridin-2-yl)ethylamino)propanamide] as the compound, how does the pEC50 read?
Answer: 6.00 to 7.00

Question: With `CN(C(=O)[C@H](Cc1ccccc1)NCc1cscn1)c1cccc(-c2ccncc2)c1` [Example 34.8, (S)—N-Methyl-3-phenyl-N-(3-(pyridin-4-yl)phenyl)-2-(thiazol-4-ylmethylamino)propanamide] as the compound, how does the pEC50 read?
Answer: 5.00 to 6.00

Question: `CC(C)n1nc(-c2ccncc2)cc1NC(=O)[C@H](Cc1ccc(Cl)cc1)NCC(=O)O` [Example 29, (S)-2-(3-(4-Chlorophenyl)-1-(1-isopropyl-3-(pyridin-4-yl)-1H-pyrazol-5-ylamino)-1-oxopropan-2-ylamino)acetic acid] was tested. Which pEC50 did it give?
Answer: 7.00 to 7.30

Question: `CC(C)(C(=O)O)c1cc(NC(=O)[C@H](Cc2ccc(Cl)cc2)NCc2cscn2)cc(-c2ccncc2)c1` [Example 63.1, (S)-2-(3-(3-(4-Chlorophenyl)-2-(thiazol-4-ylmethylamino)propanamido)-5-(pyridin-4-yl)phenyl)-2-methylpropanoic acid] was tested. Which pEC50 did it give?
Answer: 6.00 to 7.00

Question: `CNc1cc(-c2cc(NC(=O)[C@H](Cc3ccc(F)cc3)NCc3cc[nH]n3)n(C)n2)ccn1` [Example 23.2, (2S)-2-((1H-Pyrazol-3-yl)methylamino)-3-(4-fluorophenyl)-N-(1-methyl-3-(2-(methylamino)pyridin-4-yl)-1H-pyrazol-5-yl)propanamide] was tested. Which pEC50 did it give?
Answer: > 7.30

Question: `CNc1cc(-c2cc(NC(=O)[C@H](Cc3ccc(F)cc3)NCc3cscn3)n(C)n2)ccn1` [Example 23.5] was tested. Which pEC50 did it give?
Answer: > 7.30

Question: With `CC(C)(C)OC(=O)CN[C@@H](Cc1ccc(F)cc1)C(=O)Nc1cccc(-c2ccncc2)c1` [Example 34.4] as the compound, how does the pEC50 read?
Answer: 7.00 to 7.30

Question: `O=C(Nc1cccc(-c2cn[nH]c2)c1)[C@H](Cc1ccccc1)NCc1cscn1` [Example 33, (2S)—N-(3-(1H-Pyrazol-4-yl)phenyl)-3-phenyl-2-(thiazol-4-ylmethylamino)propanamide] was tested. Which pEC50 did it give?
Answer: 6.00 to 7.00

Question: How did the pEC50 turn out when `O=C(Nc1cccc(-c2ccc(F)cc2)c1)[C@H](Cc1ccccc1)NCc1cscn1` [Example 44] was run?
Answer: 6.00 to 7.00
